Reference: PubChem BioAssay (NCI)
Several values for one entry are separate records, joined by “and”; a condition that tells them apart may be missing. Identical values can stand only once.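 All cell lines were grown in 96-well plates and treated with compound for 48 hours. At the GI50, growth is halved. The concentration for full growth arrest is given as TGI.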

System: MDA-MB-468 breast
Assay: NCI anticancer screen, dose series, 48 h

| SMILES | GI50 | TGI |
| --- | --- | --- |
| N#CSc1c[nH]c2cccc(/C=C/C(=O)/C=C(/C=C/c3cccc4[nH]cc(SC#N)c34)OB(F)F)c12 | 0.3 µM | 1.19 µM |
| CC1=CC(=Nc2ccc(N(CCCl)CCCl)cc2)C=C(C)C1=O | 0.191 µM | 0.822 µM |
| Oc1ccc(CN2CCC(N3CCCCC3)CC2)c2cccnc12 | 25.2 µM | 73.9 µM |
| CS(=O)(=O)Nc1cc(-c2ccc3ncc(C#N)c(NCc4cccc(F)c4)c3c2)cnc1Cl | 0.102 µM | 0.926 µM |
| COc1cc(C2=NOC(c3cc(OC)c(OC)c(OC)c3)C2)ccc1OCCCCOc1cc2c(cc1OC)C(=O)N1CCC[C@H]1C=N2 (stereo not given in full) | 0.225 µM | 0.593 µM |
| CC/C(=C(/c1ccc(O)cc1)c1ccc(OCCNC)cc1)c1ccccc1 | 1.42 µM | 2.96 µM |
| O=C1Nc2c(C(F)(F)F)cccc2[C@]1(c1ccc(O)cc1)c1ccc(OC(F)(F)F)cc1 | 6.48 µM | 21.4 µM |
| CC1(C)OC2[C@@H](CNC(=O)NC(=O)NC(=O)CI)O[C@@H](n3cnc4c(NC(=O)Nc5ccccc5)ncnc43)[C@H]2O1 (stereo not given in full) | 6.78 µM | 14.8 µM |
| Oc1c(CN2CCC(N3CCCCC3)CC2)cc(Cc2cc(CN3CCC(N4CCCCC4)CC3)c(O)c3ncccc23)c2cccnc12 | 1.15 µM | 2.88 µM |
| C=CCCCCCCCCC(=O)[O][Sn]([CH2]CCC)([CH2]CCC)[CH2]CCC | 0.135 µM | 0.278 µM |
| C=C1C(=O)O[C@H]2[C@H]1CC/C(Cn1cc(-c3ccc(OC)cc3)nn1)=C\CC[C@@]1(C)O[C@@H]21 | 0.892 µM | 2.56 µM |
| OCc1c[nH]c2ccccc12 | 25.1 µM | 75 µM |
| Cc1ccc(NC(=O)c2cccc(N(C)C)c2)cc1NC(=O)c1ccc(O)cc1 | > 57.2 µM | > 100 µM |
| CC(=O)OC[C@]1(C)C=C2C(=O)[C@](C)(O)C3(CC3)C(C)=C2[C@H]1O | 0.0447 µM | 0.196 µM |
| COc1cc(C2NC(=O)c3ccccc3N2)ccc1OCCCCCOc1c(OC)cc(C2=NOC(c3cc(OC)c(OC)c(OC)c3)C2)cc1OC (stereo not given) | 0.0805 µM | 97.3 µM |
| C=C1C(=O)O[C@H]2[C@H]1CC/C(COC(=O)c1ccc3ccccc3c1)=C\CC[C@@]1(C)O[C@@H]21 | 0.784 µM | 2.61 µM |
| N#Cc1c(-c2ccc(F)cc2)nc(N/N=C/c2c[nH]c3ccccc23)nc1N1CCOCC1 | 3.46 µM | 22.7 µM |
| NC(=O)c1ccc(I)c(N)c1 | > 100 µM | > 100 µM |
| Oc1ccc(NCc2nc3ccccc3[nH]2)cc1 | 88.4 µM | > 100 µM |
| COc1cc2c(c(O)c1Br)C(=O)c1c(O)cc(C[C@H](C)O)cc1[C@H]2[C@H]1c2cc(C[C@H](C)O)cc(O)c2C(=O)c2c1cc(OC)c(Br)c2O | 13.3 µM and 16.5 µM | 36 µM and 41.9 µM |

| SMILES | GI50 | TGI |
| --- | --- | --- |
| O=C1c2cc(Cl)ccc2S(=O)(=O)c2c(NCCCNCCO)nc3ccccc3c21 | 1.06 µM | 2.95 µM |
| CCOc1cc2c(Cl)ncnc2c(OCC)c1OCC | 0.781 µM | 3.56 µM |
| C=CC(=O)N1CC2(CCN(c3nc(OC4CCN(CCCOC)CC4)nc4c(OCC(F)(F)F)c(-c5c(C)ccc6[nH]ncc56)c(C5CC5)cc34)CC2)C1 | 1.59 µM | 3.29 µM |
| O=C1CCCCN1CCCCC#Cc1ccccc1C#Cc1ccc([N+](=O)[O-])cc1 | 4.58 µM | 26.1 µM |
| O=C(/C(Br)=C/c1ccccc1)c1ccccc1 | 1.12 µM | 2.56 µM |
| CC(C)(C)OC(=O)N1CCc2c(sc3ncnc(N/N=C/c4cccc5ccccc45)c23)C1 | 4.21 µM | 28.1 µM |
| FC(F)(F)c1cccc(Nc2nccc(-c3cnn4nc(-c5ccccc5)ccc34)n2)c1 | 7.42 µM | > 23.5 µM |
| CC[C@@H]1C(=O)N(C)c2cnc(Nc3ccc(C(=O)NC4CCN(C)CC4)cc3OC)nc2N1C1CCCC1 | 0.00135 µM and < 0.01 µM | 0.0164 µM and < 0.0183 µM |
| COC(=O)[C@]12CC[C@@H](C)[C@H](C)[C@@H]1C1=CC[C@@H]3[C@@]4(C)C/C(=N\O)[C@H](O)[C@@]5(C)COC(=C45)C[C@@]3(C)[C@]1(C)CC2 | 6.22 µM | 20.6 µM |
| O=C(N/N=C/c1ccccc1O)c1ccccc1Nc1ccnc(C(F)(F)F)c1 | 0.272 µM | 9.14 µM |
| N#Cc1ccc(O)c(C2=NCC(c3cccc(Oc4ccccc4)c3)O2)c1 (stereo not given) | 0.841 µM | 7.07 µM |
| CN1CCN(C(=O)OCc2nc3c(N4CCOCC4)nc(Cl)nc3n2C)CC1 | 0.923 µM | 2.33 µM |
| CCN(CC)CCOc1ccc(/C(=C(\Cl)c2ccccc2)c2ccccc2)cc1 | 1.36 µM and 1.57 µM | 5.97 µM and 3.05 µM |
| CC[C@]1(O)C[C@@H]2CN(CCc3c([nH]c4ccccc34)[C@@](C(=O)OC)(c3cc4c(cc3OC)N(C)[C@H]3[C@@](O)(C(=O)OC)[C@H](OC(C)=O)[C@]5(CC)C=CCN6CC[C@]43[C@@H]65)C2)C1 | < 0.01 µM | < 0.01 µM |
| O=c1[nH]ncc(Br)c1Br | 1.27 µM | 3.21 µM |
| Oc1ccc2ccccc2c1N=Nc1nccs1 | 1.64 µM | 6.16 µM |
| C[C@@H]1OC(O)[C@@H](F)[C@H](O)[C@@H]1O (stereo not given in full) | > 100 µM | > 100 µM |
| CCCn1cnc2c(SCc3ccccc3Cl)nc(N)nc21 | 13.4 µM | 48.4 µM |
| CCN(CC)c1ccc(/C=C/c2ccc3cc(C)ccc3[n+]2CC)cc1 | 0.0205 µM | 0.464 µM |
| COc1ccc(-c2cnnc3c(-c4cccc(C(F)(F)F)c4)cnn23)cc1 | 5.39 µM | > 100 µM |
